Source: ChEMBL document CHEMBL5154690, “Discovery of a tricyclic farnesoid X receptor agonist HEC96719, a clinical candidate for treatment of non-alcoholic steatohepatitis” (Eur J Med Chem, 2022)
Activity calls are given as the source filed them. No cut-off for these calls is given here.

Assays:
[1] = Drug recovery in stomach of male Sprague-Dawley rat at 4.5 mg/kg, po administered as C14-lableled compound and assessed as radioactivity and measured at 24 hrs; assay type: ADME, organism-based; conditions: in vivo
Mus musculus [2] = assay: Anti-NASH activity against high fat (HF) diet-induced nonalcoholic steatohepatitis in leptin-deficient ob/ob mouse model assessed as reduction in NASH activity score (NAS) at 3 mg/kg, po administered once daily from week 5 to 10; assay type: functional, organism-based
[3] = Half-life in male Sprague-Dawley rat at 1 mg/kg, iv measured by LC-MS/MS analysis; assay type: ADME, organism-based; conditions: in vivo
Mus musculus [4] = assay: Antifibrotic activity in C57BL/6 mouse model of CCI4-induced liver fibrosis assessed as decrease in serum ALT level at 1 mg/kg, po administered once daily for 4 weeks; assay type: functional, organism-based
[5] = Drug recovery in brain of male Sprague-Dawley rat at 4.5 mg/kg, po administered as C14-lableled compound and assessed as radioactivity and measured at 6 hrs; assay type: ADME, organism-based; conditions: in vivo, BLD = below limit of detection
[6] = Oral bioavailability in male C57BL/6 mouse at 5 mg/kg measured by LC-MS/MS analysis; assay type: ADME, organism-based; conditions: in vivo
[7] = Drug recovery in heart of male Sprague-Dawley rat at 4.5 mg/kg, po administered as C14-lableled compound and assessed as radioactivity and measured at 0.25 hrs; assay type: ADME, organism-based; conditions: in vivo
[8] = Drug recovery in liver of male Sprague-Dawley rat at 4.5 mg/kg, po administered as C14-lableled compound and assessed as radioactivity and measured at 24 hrs; assay type: ADME, organism-based; conditions: in vivo
[9] = Half-life in male C57BL/6 mouse at 2 mg/kg, iv measured by LC-MS/MS analysis; assay type: ADME, organism-based; conditions: in vivo
[10] = Clearance in male C57BL/6 mouse at 2 mg/kg, iv measured by LC-MS/MS analysis; assay type: ADME, organism-based; conditions: in vivo
[11] = AUC (0 to t) in male Sprague-Dawley rat at 1 mg/kg, iv measured by LC-MS/MS analysis; assay type: ADME, organism-based; set-up: dose 1 mg/kg, route iv; conditions: in vivo
[12] = Clearance in male Sprague-Dawley rat at 1 mg/kg, iv measured by LC-MS/MS analysis; assay type: ADME, organism-based; conditions: in vivo
[13] = Mutagenecity in Salmonella typhimurium TA100 measured by Ames test; assay type: toxicity; conditions: salmonella enterica subsp. enterica serovar typhimurium
[14] = Drug recovery in lung of male Sprague-Dawley rat at 4.5 mg/kg, po administered as C14-lableled compound and assessed as radioactivity and measured at 1 hr; assay type: ADME, organism-based; conditions: in vivo
[15] = Mutagenecity in Salmonella typhimurium TA1535 measured by Ames test; assay type: toxicity; conditions: salmonella enterica subsp. enterica serovar typhimurium
[16] = Half-life in male Sprague-Dawley rat at 5 mg/kg, po measured by LC-MS/MS analysis; assay type: ADME, organism-based; conditions: in vivo
[17] = target: T1, Nuclear receptor subfamily 1 group I member 2 (Homo sapiens, UniProt O75469); assay: Agonist activity at PXR (unknown origin)
T1 sequence (O75469 whole entry): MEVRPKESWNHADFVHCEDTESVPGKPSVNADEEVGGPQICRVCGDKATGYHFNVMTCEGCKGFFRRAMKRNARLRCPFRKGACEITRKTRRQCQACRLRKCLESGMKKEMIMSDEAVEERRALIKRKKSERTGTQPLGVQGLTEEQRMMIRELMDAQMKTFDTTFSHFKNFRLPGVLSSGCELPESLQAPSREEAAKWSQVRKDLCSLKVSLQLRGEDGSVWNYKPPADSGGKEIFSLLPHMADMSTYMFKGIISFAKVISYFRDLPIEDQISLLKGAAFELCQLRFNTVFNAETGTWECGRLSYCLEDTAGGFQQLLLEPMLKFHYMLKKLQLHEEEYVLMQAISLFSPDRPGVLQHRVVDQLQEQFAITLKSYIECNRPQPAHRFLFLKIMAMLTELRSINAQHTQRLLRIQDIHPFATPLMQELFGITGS

[18] = Drug recovery in stomach of male Sprague-Dawley rat at 4.5 mg/kg, po administered as C14-lableled compound and assessed as radioactivity and measured at 6 hrs; assay type: ADME, organism-based; conditions: in vivo
Mus musculus [19] = assay: Anti-NASH activity in western style diet-induced nonalcoholic steatohepatitis model of male C57BL/6 mouse assessed as reduction in liver fibrosis at 1 mg/kg, po administered once daily from week 32 to 44; assay type: functional, organism-based
[20] = Drug metabolism in bile of Sprague-Dawley rat assessed as production of toxic metabolites at 4.5 mg/kg, po administered as C14-lableled compound with single dose; assay type: ADME, organism-based; conditions: in vivo
[21] = Half-life in male Beagle dog at 1 mg/kg, iv measured by LC-MS/MS analysis; assay type: ADME, organism-based, Canis lupus familiaris; conditions: in vivo
[22] = Drug recovery in ileum of male Sprague-Dawley rat at 4.5 mg/kg, po administered as C14-lableled compound and assessed as radioactivity and measured at 24 hrs; assay type: ADME, organism-based; conditions: in vivo
Mus musculus [23] = assay: Anti-NASH activity against high fat (HF) diet-induced nonalcoholic steatohepatitis in leptin-deficient ob/ob mouse model assessed as reduction in NASH activity score (NAS) at 0.3 to 1 mg/kg, po administered once daily from week 5 to 10; assay type: functional, organism-based; conditions: dose 0.3-1 mg/kg
Mus musculus [24] = assay: Antifibrotic activity in C57BL/6 mouse model of CCI4-induced liver fibrosis assessed as decrease in serum TBIL level at 1 mg/kg, po administered once daily for 4 weeks; assay type: functional, organism-based
[25] = Drug recovery in heart of male Sprague-Dawley rat at 4.5 mg/kg, po administered as C14-lableled compound and assessed as radioactivity and measured at 6 hrs; assay type: ADME, organism-based; conditions: in vivo, BLD = below limit of detection
[26] = Drug recovery in plasma of male Sprague-Dawley rat at 4.5 mg/kg, po administered as C14-lableled compound and assessed as radioactivity and measured at 6 hrs; assay type: ADME, organism-based; conditions: in vivo
[27] = Drug metabolism in urine of Sprague-Dawley rat assessed as production of toxic metabolites at 4.5 mg/kg, po administered as C14-lableled compound with single dose; assay type: ADME, organism-based; conditions: in vivo
[28] = Drug recovery in pancreas of male Sprague-Dawley rat at 4.5 mg/kg, po administered as C14-lableled compound and assessed as radioactivity and measured at 1 hr; assay type: ADME, organism-based; conditions: in vivo
[29] = Half-life in male C57BL/6 mouse at 5 mg/kg, po measured by LC-MS/MS analysis; assay type: ADME, organism-based; conditions: in vivo
[30] = Half-life in male Beagle dog at 5 mg/kg, po measured by LC-MS/MS analysis; assay type: ADME, organism-based, Canis lupus familiaris; conditions: in vivo
[31] = Drug recovery in pancreas of male Sprague-Dawley rat at 4.5 mg/kg, po administered as C14-lableled compound and assessed as radioactivity and measured at 6 hrs; assay type: ADME, organism-based; conditions: in vivo, BLD = below limit of detection

SMILES: O=C(O)c1ccc2c(c1)Oc1ccc(OCc3c(-c4c(Cl)cccc4Cl)noc3C3CC3)nc1C1(CC1)C2
- Drug recovery [1]: 108 ngequiv/g
- Activity (Mus musculus [2]): Active
- half-life [3]: 0.28 h
- Activity (Mus musculus [4]): Active
- Drug recovery [5]: Bld
- bioavailability [6]: 82.5%
- Drug recovery [7]: 208 ngequiv/g
- Drug recovery [8]: 304 ngequiv/g
- half-life [9]: 0.47 h
- clearance [10]: 160 mL/min/kg
- AUC(0-t) [11]: 473 ng·h/mL
- clearance [12]: 35.3 mL/min/kg
- Activity [13]: Non-Toxic
- Drug recovery [14]: 814 ngequiv/g
- Activity [15]: Non-Toxic
- half-life [16]: 1.6 h
- EC50 [17]: > 10 µM
- Drug recovery [18]: 188 ngequiv/g
- Activity (Mus musculus [19]): Active
- Drug metabolism [20]: Metabolite_Notdetected
- half-life [21]: 2.97 h
- Drug recovery [22]: 1542 ngequiv/g
- Activity (Mus musculus [23]): Active
- Activity (Mus musculus [24]): Active
- Drug recovery [25]: Bld
- Drug recovery [26]: 27 ngequiv/g
- Drug metabolism [27]: Metabolite_Notdetected
- Drug recovery [28]: 229 ngequiv/g
- half-life [29]: 1.06 h
- half-life [30]: 3.42 h
- Drug recovery [31]: Bld
